Reference: ChEMBL document CHEMBL3885861, “Open TG-GATES”

Organism: Rattus norvegicus
Assay: Open TG-GATES - Regimen: Daily Repeat
Type: toxicity, organism-based, Sprague-Dawley
Parameters: regimen Daily Repeat, gender Male, age 6 weeks
Conditions: in vivo, po, route gavage; for APTT / Bas / Eos / Fbg / Hb / Ht / Lym / MCH / MCHC / MCV / Mono / Neu / PT / Plat / RBC / Ret / WBC: tissue Blood; for KIDNEY_L / KIDNEY_R / KIDNEY_TOTAL: tissue Kidney; for LIVER: tissue Liver; for ALP / ALT / AST / BUN / CRE / Ca / Cl / DBIL / GLC / IP / K / LDH / Na / PL / RALB / TBIL / TC / TG / TP / gamma-GTP: tissue Plasma
[1] = 0 mg/kg, 72 h, dose level Control, time 3 day
[2] = 0 mg/kg, […], dose level Control, time 7 day
[3] = 0 mg/kg, […], dose level Control, time 14 day
[4] = 0 mg/kg, […], dose level Control, time 28 day
[5] = 100 mg/kg, 72 h, dose level Low, time 3 day
[6] = 100 mg/kg, […], dose level Low, time 7 day
[7] = 100 mg/kg, […], dose level Low, time 14 day
[8] = 100 mg/kg, […], dose level Low, time 28 day

COC(=O)C1=C(C)NC(C)=C(C(=O)OC)C1c1ccccc1[N+](=O)[O-] [NIFEDIPINE]
TERMINAL_BW [1]: 227.8 g
APTT [1]: 16.7 s
Bas [1]: 0.4%
Eos [1]: 1%
Fbg [1]: 313.6 mg/dL
Hb [1]: 13.4 g/dL
Ht [1]: 41.3%
Lym [1]: 80.2%
MCH [1]: 20.8 pg
MCHC [1]: 32.5%
MCV [1]: 64.2 fL
Mono [1]: 3.2%
Neu [1]: 14%
PT [1]: 14.5 s
Plat [1]: 122.9 x10_4/uL
RBC [1]: 643.8 x10_4/ul
Ret [1]: 7.5%
WBC [1]: 94.6 x10_2/uL
KIDNEY_L [1]: 1 g
KIDNEY_R [1]: 1 g
KIDNEY_TOTAL [1]: 2 g
LIVER [1]: 10.4 g
ALP [1]: 1654.8 IU/L
ALT [1]: 47.6 IU/L
AST [1]: 71.4 IU/L
BUN [1]: 14 mg/dL
CRE [1]: 0.2 mg/dL
Ca [1]: 11.1 mg/dL
Cl [1]: 106 meq/L
DBIL [1]: 0.014 mg/dL
GLC [1]: 179.2 mg/dL
IP [1]: 7.7 mg/dL
K [1]: 4.2 meq/L
LDH [1]: 85.4 IU/L
Na [1]: 144.8 meq/L
PL [1]: 162 mg/dL
RALB [1]: 2.7 g/dL
TBIL [1]: 0.028 mg/dL
TC [1]: 83.8 mg/dL
TG [1]: 109.2 mg/dL
TP [1]: 5.8 g/dL
gamma-GTP [1]: 1 IU/L
TERMINAL_BW [2]: 262.8 g
TERMINAL_BW [3]: 320 g
TERMINAL_BW [4]: 416 g
APTT [2]: 16.1 s
Bas [2]: 0.4%
Eos [2]: 1.4%
Fbg [2]: 286.6 mg/dL
Hb [2]: 13.7 g/dL
Ht [2]: 42%
Lym [2]: 75.8%
MCH [2]: 21 pg
MCHC [2]: 32.7%
MCV [2]: 64.1 fL
Mono [2]: 3%
Neu [2]: 18.2%
PT [2]: 14.2 s
Plat [2]: 133.6 x10_4/uL
RBC [2]: 656.4 x10_4/ul
Ret [2]: 5.7%
WBC [2]: 100.3 x10_2/uL
APTT [3]: 18.1 s
Bas [3]: 0%
Eos [3]: 1%
Fbg [3]: 320.8 mg/dL
Hb [3]: 14.8 g/dL
Ht [3]: 44.1%
Lym [3]: 79.2%
MCH [3]: 20.6 pg
MCHC [3]: 33.5%
MCV [3]: 61.3 fL
Mono [3]: 3%
Neu [3]: 15.6%
PT [3]: 14.2 s
Plat [3]: 117.8 x10_4/uL
RBC [3]: 720.2 x10_4/ul
Ret [3]: 4.2%
WBC [3]: 101 x10_2/uL
APTT [4]: 16.7 s
Bas [4]: 0.4%
Eos [4]: 1%
Fbg [4]: 313.6 mg/dL
Hb [4]: 13.4 g/dL
Ht [4]: 41.3%
Lym [4]: 80.2%
MCH [4]: 20.8 pg
MCHC [4]: 32.5%
MCV [4]: 64.2 fL
Mono [4]: 3.2%
Neu [4]: 14%
PT [4]: 14.5 s
Plat [4]: 122.9 x10_4/uL
RBC [4]: 643.8 x10_4/ul
Ret [4]: 7.5%
WBC [4]: 94.6 x10_2/uL
KIDNEY_L [2]: 1 g
KIDNEY_R [2]: 1 g
KIDNEY_TOTAL [2]: 2.1 g
KIDNEY_L [3]: 1.2 g
KIDNEY_R [3]: 1.2 g
KIDNEY_TOTAL [3]: 2.5 g
KIDNEY_L [4]: 1.4 g
KIDNEY_R [4]: 1.4 g
KIDNEY_TOTAL [4]: 2.7 g
LIVER [2]: 12.1 g
LIVER [3]: 13.8 g
LIVER [4]: 17.4 g
ALP [2]: 1580.4 IU/L
ALT [2]: 42.6 IU/L
AST [2]: 68.6 IU/L
BUN [2]: 15.4 mg/dL
CRE [2]: 0.2 mg/dL
Ca [2]: 11 mg/dL
Cl [2]: 106.4 meq/L
DBIL [2]: 0.014 mg/dL
GLC [2]: 183.6 mg/dL
IP [2]: 7.4 mg/dL
K [2]: 4 meq/L
LDH [2]: 98.2 IU/L
Na [2]: 145.2 meq/L
PL [2]: 159.2 mg/dL
RALB [2]: 2.7 g/dL
TBIL [2]: 0.026 mg/dL
TC [2]: 82.4 mg/dL
TG [2]: 111.8 mg/dL
TP [2]: 5.9 g/dL
gamma-GTP [2]: 1 IU/L
ALP [3]: 1854.8 IU/L
ALT [3]: 41.8 IU/L
AST [3]: 65 IU/L
BUN [3]: 16 mg/dL
CRE [3]: 0.2 mg/dL
Cl [3]: 105.6 meq/L
DBIL [3]: 0.012 mg/dL
GLC [3]: 184 mg/dL
IP [3]: 7.3 mg/dL
K [3]: 4 meq/L
LDH [3]: 57.8 IU/L
Na [3]: 144.2 meq/L
PL [3]: 158.8 mg/dL
RALB [3]: 2.8 g/dL
TBIL [3]: 0.024 mg/dL
TC [3]: 75.4 mg/dL
TG [3]: 150.8 mg/dL
TP [3]: 6 g/dL
gamma-GTP [3]: 1 IU/L
ALP [4]: 1068.6 IU/L
ALT [4]: 36.2 IU/L
AST [4]: 63 IU/L
BUN [4]: 17.4 mg/dL
CRE [4]: 0.3 mg/dL
Ca [4]: 10.7 mg/dL
Cl [4]: 104.4 meq/L
DBIL [4]: 0.01 mg/dL
GLC [4]: 192.8 mg/dL
IP [4]: 6.1 mg/dL
K [4]: 3.9 meq/L
LDH [4]: 66 IU/L
Na [4]: 143.8 meq/L
PL [4]: 161.6 mg/dL
RALB [4]: 2.8 g/dL
TBIL [4]: 0.026 mg/dL
TC [4]: 75 mg/dL
TG [4]: 175.2 mg/dL
TP [4]: 6.3 g/dL
gamma-GTP [4]: 0.8 IU/L
TERMINAL_BW [5]: 223 g
APTT [5]: 17.6 s
Bas [5]: 0%
Eos [5]: 1%
Fbg [5]: 281.6 mg/dL
Hb [5]: 13.6 g/dL
Ht [5]: 42.3%
Lym [5]: 71.4%
MCH [5]: 20.7 pg
MCHC [5]: 32.3%
MCV [5]: 64 fL
Mono [5]: 3.4%
Neu [5]: 23.6%
PT [5]: 13.8 s
Plat [5]: 130.7 x10_4/uL
RBC [5]: 660.2 x10_4/ul
Ret [5]: 9.2%
WBC [5]: 96 x10_2/uL
KIDNEY_L [5]: 0.9 g
KIDNEY_R [5]: 0.9 g
KIDNEY_TOTAL [5]: 1.9 g
LIVER [5]: 11 g
ALP [5]: 1508 IU/L
ALT [5]: 46.6 IU/L
AST [5]: 65.8 IU/L
BUN [5]: 15 mg/dL
CRE [5]: 0.2 mg/dL
Ca [5]: 10.9 mg/dL
Cl [5]: 107 meq/L
DBIL [5]: 0.014 mg/dL
GLC [5]: 173.4 mg/dL
IP [5]: 6.8 mg/dL
K [5]: 4.5 meq/L
LDH [5]: 88.6 IU/L
Na [5]: 143.2 meq/L
PL [5]: 152 mg/dL
RALB [5]: 2.7 g/dL
TBIL [5]: 0.028 mg/dL
TC [5]: 82.2 mg/dL
TG [5]: 98.8 mg/dL
TP [5]: 5.7 g/dL
gamma-GTP [5]: 1 IU/L
TERMINAL_BW [6]: 261.8 g
TERMINAL_BW [7]: 322.2 g
TERMINAL_BW [8]: 378.4 g
APTT [6]: 14.8 s
Bas [6]: 0.2%
Eos [6]: 1.4%
Fbg [6]: 283.4 mg/dL
Hb [6]: 13.8 g/dL
Ht [6]: 42.1%
Lym [6]: 73%
MCH [6]: 20.9 pg
MCHC [6]: 32.8%
MCV [6]: 63.8 fL
Mono [6]: 3%
Neu [6]: 21.8%
PT [6]: 13.7 s
Plat [6]: 125.1 x10_4/uL
RBC [6]: 659.6 x10_4/ul
Ret [6]: 6.8%
WBC [6]: 105.6 x10_2/uL
APTT [7]: 19 s
Bas [7]: 0.2%
Eos [7]: 1%
Fbg [7]: 260.4 mg/dL
Hb [7]: 14.5 g/dL
Ht [7]: 43.7%
Lym [7]: 72.4%
MCH [7]: 21.1 pg
MCHC [7]: 33.2%
MCV [7]: 63.6 fL
Mono [7]: 2.8%
PT [7]: 14 s
Plat [7]: 113.8 x10_4/uL
RBC [7]: 688 x10_4/ul
Ret [7]: 5.4%
WBC [7]: 110.8 x10_2/uL
APTT [8]: 17.6 s
Bas [8]: 0%
Eos [8]: 1%
Fbg [8]: 281.6 mg/dL
Hb [8]: 13.6 g/dL
Ht [8]: 42.3%
Lym [8]: 71.4%
MCH [8]: 20.7 pg
MCHC [8]: 32.3%
MCV [8]: 64 fL
Mono [8]: 3.4%
Neu [8]: 23.6%
PT [8]: 13.8 s
Plat [8]: 130.7 x10_4/uL
RBC [8]: 660.2 x10_4/ul
Ret [8]: 9.2%
WBC [8]: 96 x10_2/uL
KIDNEY_L [6]: 1.1 g
KIDNEY_R [6]: 1.1 g
KIDNEY_TOTAL [6]: 2.1 g
KIDNEY_L [7]: 1.2 g
KIDNEY_R [7]: 1.2 g
KIDNEY_TOTAL [7]: 2.5 g
KIDNEY_L [8]: 1.3 g
KIDNEY_R [8]: 1.3 g
KIDNEY_TOTAL [8]: 2.6 g
LIVER [6]: 13.2 g
LIVER [7]: 15 g
LIVER [8]: 15.4 g
ALP [6]: 1407 IU/L
ALT [6]: 47 IU/L
AST [6]: 67.4 IU/L
BUN [6]: 17.4 mg/dL
CRE [6]: 0.2 mg/dL
Ca [6]: 10.7 mg/dL
Cl [6]: 106.2 meq/L
DBIL [6]: 0.014 mg/dL
GLC [6]: 174.8 mg/dL
IP [6]: 6.8 mg/dL
K [6]: 4.2 meq/L
LDH [6]: 86.4 IU/L
Na [6]: 143.8 meq/L
PL [6]: 144 mg/dL
RALB [6]: 2.7 g/dL
TBIL [6]: 0.028 mg/dL
TC [6]: 77.4 mg/dL
TG [6]: 93.4 mg/dL
TP [6]: 5.9 g/dL
gamma-GTP [6]: 1 IU/L
ALP [7]: 1646.4 IU/L
ALT [7]: 44.4 IU/L
AST [7]: 71.4 IU/L
BUN [7]: 17.6 mg/dL
CRE [7]: 0.2 mg/dL
Ca [7]: 11 mg/dL
Cl [7]: 105.8 meq/L
DBIL [7]: 0.012 mg/dL
GLC [7]: 177.4 mg/dL
IP [7]: 6.7 mg/dL
K [7]: 4.2 meq/L
LDH [7]: 46.2 IU/L
Na [7]: 143.2 meq/L
PL [7]: 149.6 mg/dL
RALB [7]: 2.7 g/dL
TBIL [7]: 0.026 mg/dL
TC [7]: 73.6 mg/dL
TP [7]: 5.9 g/dL
gamma-GTP [7]: 1 IU/L
ALP [8]: 1032.8 IU/L
ALT [8]: 39.6 IU/L
AST [8]: 71.2 IU/L
BUN [8]: 17.2 mg/dL
CRE [8]: 0.3 mg/dL
Ca [8]: 10.4 mg/dL
Cl [8]: 107.4 meq/L
DBIL [8]: 0.012 mg/dL
GLC [8]: 167.8 mg/dL
IP [8]: 5.6 mg/dL
K [8]: 3.9 meq/L
LDH [8]: 61.8 IU/L
Na [8]: 143.8 meq/L
PL [8]: 135 mg/dL
RALB [8]: 2.8 g/dL
TBIL [8]: 0.024 mg/dL
TC [8]: 64.6 mg/dL
TG [8]: 117.8 mg/dL
TP [8]: 6.1 g/dL
